Experimental data reported in patent US4454158A, “Allyl amine MAO inhibitors” (Merrell Toraude et Compagnie, priority 1981, dated 1984).

How the values were obtained:
MAO-B versus MAO-A = assay: Selectivity of MAO inhibitors - In vitro (14C 5-hydroxytryptamine for MAO-A, 14C phenethylamine for MAO-B); assay type: biochemical, rat; conditions: for Selectivity (ratio of inhibitory activity against MAO-B versus MAO-A): in vitro, rat brain mitochondria
Protocol: Mitochondria are prepared from rat brain by homogenation in phosphate buffer (0.1 M, pH 7.2) followed by differential centrifugation. The mitochondria are suspended in the same buffer, the test compound is added at the desired concentration, and the system is incubated. […] Christmas, et al, supra).
Selectivity is expressed as the ratio of the inhibitory activity against MAO-B versus the inhibitory activity against MAO-A.

MAO [1] = assay: Inhibition of MAO - In vitro (14C p-tyramine substrate, partially purified rat brain mitochondria); assay type: biochemical; conditions: tested as hydrochloride salt, read-out: IC50 (MAO inhibitory activity - In vitro)
Source text: (A) The ability of a compound of Formula I or II to inhibit MAO can be determined in vitro by the method of A. Christmas et al, Br. J. Pharmacol. 45, 490 (1972) in partially purified mitochondria from rat brain using ^14 C p-tyramine as the substrate.

MAO [2] = assay: Inhibition of MAO - Ex vivo, rat (14C p-tyramine substrate); assay type: in vivo; conditions: for % Inhibition of MAO - Brain: 18 hr
Protocol: (§1) The ability of a compound of Formula I or II to inhibit MAO can be determined ex vivo by the following procedure:
The test compound is administered intraperitoneally (ip), intravenously (iv), or orally (po) to rats or mice and the animals are killed at various times after treatment. […] MAO activity is determined in the homogenates using ^14 C p-tyramine, as the substrate. […] Selectivity can be determined by repeating the above-described test using either ^14 C 5-hydroxytryptamine (for MAO-A) or ^14 C phenethylamine (for MAO-B) as the substrate for determining the % inhibition

[3] = system: heart rate response to p-tyramine; assay: Cheese effect: potentiation of heart-rate response to p-tyramine in rats; conditions: rat
Protocol: The following test procedure can be employed to assess the potential of a compound of Formula I or II for producing the "cheese effect":
Rats are administered an intravenous injection of the test compound at various dosage levels, and 30 minutes later the rats are challenged with several intravenous or intraduodenal dodes of p-tyramine. The heart rate response is measured.

MAO [4] = assay: Inhibition of MAO - In vivo: change in levels of endogenous MAO substrates and metabolites in mouse brain; parameters: species or system mice; conditions: 2 hr
Protocol: The ability of a compound of Formula I or II to inhibit MAO can be determined in vivo in mice according to the following procedure, wherein changes in concentration of the endogenous MAO substrates and the metabolites thereof are assayed.
Mice are given an intraperitoneal injection of the test compound and 2 hours or 16 hours later the animals are killed. The levels of dopamine, dihydroxyphenylacetic acid (DOPAC), 5-hydroxytryptamine (5-HT), and 5-hydroxyindole-3-acetic acid (5-HIAA) in brain homogenates are determined by the method of J. Wagner et al, J. Chromatog. 164, 41 (1979) and P. Bey et al, Br. J. Pharmac., 70, 571 (1980).

MAO [5] = assay: Inhibition of MAO - Ex vivo, mouse (14C p-tyramine substrate); assay type: in vivo; conditions: 24 hr
Protocol: as §1
The test compound is administered intraperitoneally (ip), intravenously (iv), or orally (po) to rats or mice and the animals are killed at various times after treatment. The brain, heart, liver, or duodenum is removed and either a crude homogenate or a mitochondrial fraction, described in Example 28, Part A, is prepared. MAO activity is determined in the homogenates using ^14 C p-tyramine, as the substrate. Table III gives the results of the testing of certain compounds according to the above-described procedure. Selectivity can be determined by repeating the above-described test using either ^14 C 5-hydroxytryptamine (for MAO-A) or ^14 C phenethylamine (for MAO-B) as the substrate for determining the % inhibition

Parkinson's disease = conditions: literature; cited from earlier work
depression = conditions: literature; cited from earlier work
cheese effect = conditions: low dosages; literature; cited from earlier work
MAO-A and MAO-B = conditions: literature; cited from earlier work

## NC/C(=C/F)c1ccc(Cl)cc1 [(E)-2-(4'-Chloro)phenyl-3-fluoroallylamine]
MAO-B versus MAO-A
  Selectivity (ratio of inhibitory activity against MAO-B versus MAO-A): 10
MAO [1]
  IC50: 20 nM

## COc1ccc(C/C(=C\F)CN)cc1 [(E)-2-(4'-Methoxy)benzyl-3-fluoroallylamine]
MAO-B versus MAO-A
  selectivity for MAO-B as compared to MAO-A (in words): marked selectivity for MAO-B as compared to MAO-A
  Selectivity (ratio of inhibitory activity against MAO-B versus MAO-A): 500
MAO [1]
  IC50: 3000 nM

## COc1ccc(/C(=C\F)CN)cc1 [(E)-2-(4'-Methoxy)phenyl-3-fluoroallyl amine]
MAO [2]; 0.1 mg/kg iv, 2 hr
  % Inhibition of MAO - Duodenum: 80%
  % Inhibition of MAO - Heart: 50%
  % Inhibition of MAO - Liver: 30%
MAO [2]; 1.0 mg/kg po
  % Inhibition of MAO - Brain: 86%
MAO [2]; 5.0 mg/kg po
  % Inhibition of MAO - Brain: 97%
[3]; dose 0.1 (iv), p-tyramine i.d.
  Potentiation of heart-rate response to p-tyramine: 2.0 fold
[3]; dose 0.1 (iv), p-tyramine i.v.
  Potentiation of heart-rate response to p-tyramine: 1.4 fold
[3]; dose 1.0 (iv), p-tyramine i.d.
  Potentiation of heart-rate response to p-tyramine: 4.6 fold
[3]; dose 1.0 (iv), p-tyramine i.v.
  Potentiation of heart-rate response to p-tyramine: 5.2 fold
[3]; in vivo
  risk of producing the cheese effect (in words): significantly decreased risk

## NC/C(=C/F)Cc1ccccc1 [(E)-2-benzyl-3-fluoroallylamine, (E)-2-2-Benzyl-3-fluoroallylamine]
MAO-B versus MAO-A
  selectivity for MAO-B as compared to MAO-A (in words): marked selectivity for MAO-B as compared to MAO-A
  Selectivity (ratio of inhibitory activity against MAO-B versus MAO-A): 200
MAO [1]
  IC50: 7500 nM

## NC/C(=C/Cl)c1ccccc1 [(E)-2-phenyl-3-chloroallylamine, (E)-2-Phenyl-3-chloroallylamine]
MAO [1]
  IC50: 100000 nM

## NC/C(=C/F)c1ccccc1 [(E)-2-phenyl-3-fluoroallylamine, (E)-2-Phenyl-3-fluoroallylamine]
MAO [4]; 1 mg/kg ip
  % Change (compared to control) - 5-HIAA: -35%
  % Change (compared to control) - 5-HT: +41%
  % Change (compared to control) - DOPAC: -67%
  % Change (compared to control) - Dopamine: +15%
MAO [4]; 10 mg/kg ip
  % Change (compared to control) - 5-HIAA: -90%
  % Change (compared to control) - 5-HT: +90%
  % Change (compared to control) - DOPAC: -92%
  % Change (compared to control) - Dopamine: +32%
MAO [4]; 100 mg/kg ip
  % Change (compared to control) - 5-HIAA: -91%
  % Change (compared to control) - 5-HT: +96%
  % Change (compared to control) - DOPAC: -95%
  % Change (compared to control) - Dopamine: +19%
MAO [2]; 0.1 mg/kg iv, 24 hr
  % Inhibition of MAO - Duodenum: 67%
  % Inhibition of MAO - Heart: 85%
  % Inhibition of MAO - Liver: 48%
MAO-B versus MAO-A
  Selectivity (ratio of inhibitory activity against MAO-B versus MAO-A): 10
MAO [5]; 0.5 mg/kg ip
  % Inhibition of MAO - Brain: 45%
  % Inhibition of MAO - Heart: 91%
MAO [5]; 1.0 mg/kg ip
  % Inhibition of MAO - Brain: 68%
  % Inhibition of MAO - Heart: 97%
MAO [1]
  IC50: 700 nM
[3]; dose 0.1 (iv), p-tyramine i.d.
  Potentiation of heart-rate response to p-tyramine: 9.1 fold
[3]; dose 0.1 (iv), p-tyramine i.v.
  Potentiation of heart-rate response to p-tyramine: 8.4 fold

## CCNC/C(=C/F)c1cccc(OC)c1 [(E)-N-Ethyl 2-(3'-methoxy)phenyl-3-fluoroallylamine]
MAO [1]
  IC50: 3000 nM

## CCNC/C(=C/F)c1ccc(OC)c(OC)c1 [(E)-N-ethyl 2-(3',4'-dimethoxy)phenyl-3-fluoroallylamine]
MAO [1]
  IC50: 70000 nM

## NC/C(=C\F)c1ccccc1 [(Z)-2-phenyl-3-fluoroallylamine, (Z)-2-Phenyl-3-fluoroallylamine]
MAO [1]
  IC50: 1000 nM

## C#CCN(C)[C@H](C)Cc1ccccc1 [L-deprenyl, reference compound]
MAO [4]; 10 mg/kg ip
  % Change (compared to control) - 5-HIAA: +9%
  % Change (compared to control) - 5-HT: +18%
  % Change (compared to control) - DOPAC: -21%
  % Change (compared to control) - Dopamine: +10%
MAO [2]; 1.0 mg/kg po, 2 hr
  % Inhibition of MAO - Duodenum: 62%
  % Inhibition of MAO - Heart: 48%
Parkinson's disease
  potentiation of L-DOPA in Parkinson's disease (in words): potentiate L-DOPA for the treatment of Parkinson's disease without producing peripheral side effects
depression
  clinical effectiveness as antidepressant (in words): clinically effective antidepressant agents
Cheese effect
  cheese effect (in words): is not observed at the low dosages where preferential inhibition of MAO-B occurs
[3]; dose 0.1 (iv), p-tyramine i.d.
  Potentiation of heart-rate response to p-tyramine: no effect
[3]; dose 0.1 (iv), p-tyramine i.v.
  Potentiation of heart-rate response to p-tyramine: 1.3 fold
[3]; dose 1.0 (iv), p-tyramine i.d.
  Potentiation of heart-rate response to p-tyramine: 2.1 fold
[3]; dose 1.0 (iv), p-tyramine i.v.
  Potentiation of heart-rate response to p-tyramine: 2.2 fold

## Cc1cc(C(=O)NNCc2ccccc2)no1 [isocarboxazid]
MAO-A and MAO-B
  preferential inhibition of MAO-A or MAO-B (in words): not preferential in their action upon MAO

## NNCCc1ccccc1 [phenelzine]
MAO-A and MAO-B
  preferential inhibition of MAO-A or MAO-B (in words): not preferential in their action upon MAO
